Where “and” joins values, the source holds several entries; their conditions need not be identical. Identical values can stand only once. Inconclusive results and toxic doses are left out.
System: L1210 leukemia ip in BDF1 mice, survival T/C
Test: NCI In Vivo Anticancer Drug Screen. Data for tumor model L1210 Leukemia (intraperitoneal) in B6D2F1 (BDF1) mice
Conditions: endpoint: mean survival time, higher = longer survival
In short: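 In this screen, tumor-bearing mice given compound are compared to those given vehicle, and their survival values are reported as a treated-to-control quotient.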

[1] = dose: 100.0 mg/kg/injection, schedule: Q04DX003 (ip), vehicle: saline with Tween-80
[2] = dose: 200.0 mg/kg/injection, schedule: Q04DX003 (ip), vehicle: saline with Tween-80
[3] = dose: 400.0 mg/kg/injection, schedule: Q04DX003 (ip), vehicle: saline with Tween-80
[4] = dose: 100.0 mg/kg/injection, schedule: Q01DX001 (ip), vehicle: saline
[5] = dose: 200.0 mg/kg/injection, schedule: Q01DX001 (ip), vehicle: saline

O=C(Nc1ccc(C2=NCCN2)cc1)Nc1cccc(NC(=O)Nc2ccc(C3=NCCN3)cc2)c1
T/C (dose: 7.5 mg/kg/injection, schedule: Q01DX Z (ip), vehicle: carboxymethylcellulose (CMC)): 119 % of control
T/C (dose: 7.5 mg/kg/injection, schedule: Q#A X Z (ip), vehicle: carboxymethylcellulose (CMC)): 180 % of control
T/C (dose: 15.0 mg/kg/injection, schedule: Q01DX Z (ip), vehicle: carboxymethylcellulose (CMC)): 189 % of control
T/C (dose: 15.0 mg/kg/injection, schedule: Q#A X Z (ip), vehicle: carboxymethylcellulose (CMC)): 215 % of control
T/C (dose: 22.5 mg/kg/injection, schedule: Q03DX Z (ip), vehicle: carboxymethylcellulose (CMC)): 122 % of control
T/C (dose: 30.0 mg/kg/injection, schedule: Q01DX Z (ip), vehicle: carboxymethylcellulose (CMC)): 206 % of control and 227 % of control and 315 % of control
T/C (dose: 30.0 mg/kg/injection, schedule: Q01DX Z (sc), vehicle: carboxymethylcellulose (CMC)): 101 % of control and 107 % of control
T/C (dose: 30.0 mg/kg/injection, schedule: Q#A X Z (ip), vehicle: carboxymethylcellulose (CMC)): 220 % of control
T/C (dose: 60.0 mg/kg/injection, schedule: Q01DX004 (im), vehicle: olive oil, sesame oil, peanut oil): 92 % of control
T/C (dose: 60.0 mg/kg/injection, schedule: Q01DX Z (ip), vehicle: carboxymethylcellulose (CMC)): 216 % of control and 255 % of control and 337 % of control
T/C (dose: 60.0 mg/kg/injection, schedule: Q01DX Z (sc), vehicle: carboxymethylcellulose (CMC)): 97 % of control and 102 % of control
T/C (dose: 60.0 mg/kg/injection, schedule: Q#A X Z (ip), vehicle: carboxymethylcellulose (CMC)): 234 % of control
T/C (dose: 62.5 mg/kg/injection, schedule: Q## X009 (oral), vehicle: saline): 98 % of control
T/C (dose: 74.0 mg/kg/injection, schedule: Q01DX Z (ip), vehicle: carboxymethylcellulose (CMC)): 280 % of control
T/C (dose: 90.0 mg/kg/injection, schedule: Q03DX Z (ip), vehicle: carboxymethylcellulose (CMC)): 227 % of control
T/C (dose: 120.0 mg/kg/injection, schedule: Q01DX004 (im), vehicle: olive oil, sesame oil, peanut oil): 102 % of control
T/C (dose: 120.0 mg/kg/injection, schedule: Q01DX Z (ip), vehicle: carboxymethylcellulose (CMC)): 225 % of control and 234 % of control and 331 % of control
T/C (dose: 120.0 mg/kg/injection, schedule: Q01DX Z (oral), vehicle: carboxymethylcellulose (CMC)): 98 % of control
T/C (dose: 120.0 mg/kg/injection, schedule: Q01DX Z (sc), vehicle: carboxymethylcellulose (CMC)): 101 % of control and 104 % of control
T/C (dose: 120.0 mg/kg/injection, schedule: Q#A X Z (ip), vehicle: carboxymethylcellulose (CMC)): 218 % of control
T/C (dose: 125.0 mg/kg/injection, schedule: Q## X010 (oral), vehicle: saline): 95 % of control
T/C (dose: 148.0 mg/kg/injection, schedule: Q01DX Z (ip), vehicle: carboxymethylcellulose (CMC)): 271 % of control
T/C (dose: 180.0 mg/kg/injection, schedule: Q03DX Z (ip), vehicle: carboxymethylcellulose (CMC)): 265 % of control
T/C (dose: 210.0 mg/kg/injection, schedule: Q07DX Z (ip), vehicle: carboxymethylcellulose (CMC)): 194 % of control
T/C (dose: 222.0 mg/kg/injection, schedule: Q01DX Z (ip), vehicle: carboxymethylcellulose (CMC)): 204 % of control
T/C (dose: 240.0 mg/kg/injection, schedule: Q01DX004 (im), vehicle: olive oil, sesame oil, peanut oil): 101 % of control
T/C (dose: 240.0 mg/kg/injection, schedule: Q01DX Z (ip), vehicle: carboxymethylcellulose (CMC)): 223 % of control and 260 % of control and 309 % of control
T/C (dose: 240.0 mg/kg/injection, schedule: Q01DX Z (oral), vehicle: carboxymethylcellulose (CMC)): 97 % of control
T/C (dose: 240.0 mg/kg/injection, schedule: Q01DX Z (sc), vehicle: carboxymethylcellulose (CMC)): 95 % of control and 105 % of control
T/C (dose: 240.0 mg/kg/injection, schedule: Q#A X Z (ip), vehicle: carboxymethylcellulose (CMC)): 182 % of control
T/C (dose: 250.0 mg/kg/injection, schedule: Q## X010 (oral), vehicle: saline): 102 % of control
T/C (dose: 300.0 mg/kg/injection, schedule: Q01DX001 (ip), vehicle: carboxymethylcellulose (CMC)): 172 % of control
T/C (dose: 333.0 mg/kg/injection, schedule: Q01DX Z (ip), vehicle: carboxymethylcellulose (CMC)): 178 % of control
T/C (dose: 360.0 mg/kg/injection, schedule: Q03DX Z (ip), vehicle: carboxymethylcellulose (CMC)): 253 % of control
T/C (dose: 420.0 mg/kg/injection, schedule: Q07DX Z (ip), vehicle: carboxymethylcellulose (CMC)): 190 % of control
T/C (dose: 480.0 mg/kg/injection, schedule: Q01DX004 (im), vehicle: olive oil, sesame oil, peanut oil): 106 % of control
T/C (dose: 480.0 mg/kg/injection, schedule: Q01DX Z (ip), vehicle: carboxymethylcellulose (CMC)): 177 % of control and 215 % of control
T/C (dose: 480.0 mg/kg/injection, schedule: Q01DX Z (oral), vehicle: carboxymethylcellulose (CMC)): 97 % of control
T/C (dose: 480.0 mg/kg/injection, schedule: Q01DX Z (sc), vehicle: carboxymethylcellulose (CMC)): 105 % of control and 108 % of control
T/C (dose: 500.0 mg/kg/injection, schedule: Q01DX Z (ip), vehicle: carboxymethylcellulose (CMC)): 156 % of control
T/C (dose: 500.0 mg/kg/injection, schedule: Q## X009 (oral), vehicle: saline): 98 % of control
T/C (dose: 720.0 mg/kg/injection, schedule: Q03DX Z (ip), vehicle: carboxymethylcellulose (CMC)): 252 % of control
T/C (dose: 840.0 mg/kg/injection, schedule: Q07DX Z (ip), vehicle: carboxymethylcellulose (CMC)): 227 % of control
T/C (dose: 960.0 mg/kg/injection, schedule: Q01DX Z (oral), vehicle: carboxymethylcellulose (CMC)): 97 % of control
T/C (dose: 1440.0 mg/kg/injection, schedule: Q03DX Z (ip), vehicle: carboxymethylcellulose (CMC)): 231 % of control
T/C (dose: 1680.0 mg/kg/injection, schedule: Q07DX Z (ip), vehicle: carboxymethylcellulose (CMC)): 239 % of control
T/C (dose: 1920.0 mg/kg/injection, schedule: Q01DX Z (oral), vehicle: carboxymethylcellulose (CMC)): 98 % of control
T/C (dose: 3360.0 mg/kg/injection, schedule: Q07DX Z (ip), vehicle: carboxymethylcellulose (CMC)): 300 % of control

O=C(Nc1ccc([N+](=O)[O-])cc1Cl)Oc1ccc(Cl)cc1Cc1ccccc1
T/C [1]: 88 % of control
T/C [2]: 93 % of control
T/C [3]: 102 % of control

OCCCN1CCC2(CC1)SSC1(CCN(CCCO)CC1)S2
T/C (dose: 50.0 mg/kg/injection, schedule: Q01DX009 (ip), vehicle: saline): 95 % of control
T/C (dose: 100.0 mg/kg/injection, schedule: Q01DX009 (ip), vehicle: saline): 101 % of control
T/C (dose: 100.0 mg/kg/injection, schedule: Q04DX003 (ip), vehicle: saline): 95 % of control
T/C (dose: 200.0 mg/kg/injection, schedule: Q04DX003 (ip), vehicle: saline): 98 % of control

CCOC(=O)C1(C(=O)OCC)CCC(O)N1C(=O)c1cc2c(cc1[N+](=O)[O-])OCO2 (stereo not given)
T/C (dose: 100.0 mg/kg/injection, schedule: Q04DX003 (ip), vehicle: Klucel (hydroxypropylcellulose) (HPC)): 91 % of control
T/C (dose: 200.0 mg/kg/injection, schedule: Q04DX003 (ip), vehicle: Klucel (hydroxypropylcellulose) (HPC)): 99 % of control
T/C (dose: 400.0 mg/kg/injection, schedule: Q04DX003 (ip), vehicle: Klucel (hydroxypropylcellulose) (HPC)): 100 % of control

NC(=O)CCNCCSC(=O)c1ccccc1
T/C [1]: 102 % of control
T/C [2]: 100 % of control
T/C [3]: 96 % of control

CCCCCCCCCCC1CCC2CCC3CCCC4CCC1C2C34 (stereo not given)
T/C (dose: 25.0 mg/kg/injection, schedule: Q04DX003 (ip), vehicle: acetone): 96 % of control
T/C (dose: 50.0 mg/kg/injection, schedule: Q04DX003 (ip), vehicle: acetone): 88 % of control
T/C [4]: 88 % of control
T/C (dose: 100.0 mg/kg/injection, schedule: Q04DX003 (ip), vehicle: acetone): 86 % of control
T/C [5]: 90 % of control

CC(C)=CCCC/C=N/NC(N)=O
T/C (dose: 75.0 mg/kg/injection, schedule: Q01DX001 (ip), vehicle: acetone): 102 % of control
T/C (dose: 150.0 mg/kg/injection, schedule: Q01DX001 (ip), vehicle: acetone): 97 % of control

COc1ccc(CN2CCCN(Cc3ccc(OC)cc3OC)C2c2cccnc2)c(OC)c1
T/C (dose: 50.0 mg/kg/injection, schedule: Q01DX001 (ip), vehicle: saline): 94 % of control
T/C [4]: 100 % of control
T/C [5]: 103 % of control
T/C (dose: 400.0 mg/kg/injection, schedule: Q01DX001 (ip), vehicle: saline): 100 % of control

C=C1Sc2ccccc2N1C
T/C (dose: 6.25 mg/kg/injection, schedule: Q01DX015 (ip), vehicle: saline): 97 % of control
T/C (dose: 12.5 mg/kg/injection, schedule: Q01DX015 (ip), vehicle: saline): 97 % of control
T/C (dose: 25.0 mg/kg/injection, schedule: Q01DX015 (ip), vehicle: saline): 95 % of control
T/C (dose: 50.0 mg/kg/injection, schedule: Q01DX015 (ip), vehicle: saline): 91 % of control

CCCCCCCCCCCCCCn1cnc2c(N)ncnc21
T/C (dose: 12.5 mg/kg/injection, schedule: Q01DX005 (ip), vehicle: other): 101 % of control
T/C (dose: 25.0 mg/kg/injection, schedule: Q01DX005 (ip), vehicle: other): 111 % of control
T/C (dose: 50.0 mg/kg/injection, schedule: Q01DX005 (ip), vehicle: other): 101 % of control
T/C (dose: 100.0 mg/kg/injection, schedule: Q01DX005 (ip), vehicle: other): 106 % of control

Source: PubChem BioAssay AID248 (DTP/NCI, 2004)
